Patent US20160184246A1, “TRANSDERMAL DRUG DELIVERY SYSTEMS FOR AGOMELATINE” (Noven Pharmaceuticals, Inc., priority 2014, published 2016)
Values after ≈ are worked out from the molar mass of the structure shown.

How the values were obtained:
[1] = Solubility of agomelatine in water or aqueous isopropanol (IPA); type: physicochemical; conditions: 32° C.
Description: The solubility of agomelatine in water or different concentrations of aqueous isopropanol (IPA) was assessed. As shown in the table below, the solubility of agomelatine in aqueous IPA solutions increased with increasing IPA content. Agomelatine was formulated at its saturation concentration in different concentrations of aqueous IPA and drug flux through human cadaver skin was assessed using a modified Franz-cell apparatus, using 0.1 mL solution per cm^2.

[2] = Pharmacokinetics of oral agomelatine (background); type: in vivo, human; conditions: current commercial oral dosage, humans
Description: Oral dosage forms (tablets) of agomelatine have been approved in Europe under the trade names Valdoxan, Melitor, and Thymanax. Each tablet contains 25 mg agomelatine, prescribed at an initial dose of 1 tablet taken at bedtime, which dose may be increased to 2 tablets (50 mg) as needed. Oral agomelatine is well absorbed (although greater in women than in men), however, oral bioavailability is only 5% with large variations. The limited bioavailability is believed to be due to heavy first-pass liver metabolism, predominantly by cytochrome CYP1A2 of the P450 isoenzyme system, which results in conjugated metabolites of hydroxylated and demethylated agomelatine. […] The agomelatine oral tablet product produces a human plasma concentration-time pharmacokinetic (PK) profile with a Cmax of about 6 ng/ml, declining thereafter thereafter with a t1/2 of less than 2 hours.

[3] = cited from earlier work
[4] = test system: serum hepatic transaminases; conditions: in vivo; cited from earlier work
[5] = cited from earlier work; remark: listed apart in the source

solubility ([1]; 0 (water)): 0.4 mg/mL (≈ 1.64 mM)
solubility ([1]; 25 v/v % aqueous isopropanol, aqueous with cosolvent or surfactant or cyclodextrin, 25 v/v % aqueous IPA): 3 mg/mL (≈ 12.3 mM)
solubility ([1]; 50 v/v % aqueous isopropanol, aqueous with cosolvent or surfactant or cyclodextrin, 50 v/v % aqueous IPA): 51 mg/mL (≈ 210 mM)
solubility ([1]; 75 v/v % aqueous isopropanol, aqueous with cosolvent or surfactant or cyclodextrin, 75 v/v % aqueous IPA): 139 mg/mL (≈ 571 mM)
solubility ([1]; 90 v/v % aqueous isopropanol, aqueous with cosolvent or surfactant or cyclodextrin, 90 v/v % aqueous IPA): > 150 mg/mL
systemic delivery of agomelatine after hepatic metabolism [2]: 1.25 to 2.5 mg
Compound: COc1ccc2cccc(CCNC(C)=O)c2c1 [Agomelatine, N-[2-(7-methoxynaphthalen-1-yl)ethyl]acetamide]
bound to plasma protein ([3]; in vivo): 95%
plasma half-life (t1/2) ([3]; in vivo): 1 to 2 h
oral bioavailability ([3]; oral): 5%
increases in serum hepatic transaminases [4]: as high as three times the upper limit of normal range
individuals with increases in serum hepatic transaminases [4]: up to 1%
solubility in water [5]: 0.2 mg/mL (≈ 0.822 mM)
